According to patent publication US10251835B2, “Cranial delivery of pharmaceuticals” (GLIA, LLC, priority 2013, dated 2019):
“Also recorded” adds a separate entry of the source.

Legend:
Assay type in all cases: in vivo, human
[1] = system: post-surgical patients on glaucoma medication; assay: Treatment of ocular discomfort and redness in post-surgical patients and patients on glaucoma medication; conditions: 1% progesterone to forehead, three times daily or 2-3 times then once a day
Source text: A […] […] had four eye surgeries and was being treated with two glaucoma eye drops (dorzolamide-timolol combination and travaprost) together with a lubricating eye gel twice a day.
A […] […] had multiple surgeries and was diagnosed with Fuch's corneal dystrophy and narrow angle glaucoma. Prior to the latest surgery, when they were almost legally blind, they started applying to their forehead 1% progesterone 2-3 times a day, then reduced the application frequency to once a day.

[2] = system: patient with corneal Herpes zoster; assay: Treatment of herpetic keratitis; conditions: for intraocular pressure: ganciclovir gel plus progesterone to forehead
Source text: A person suffered a first onset of active corneal Herpes zoster. They presented with classic Herpes Zoster symptoms including, left hemisphere unilateral skin lesions on forehead, bridge of nose area and down the nose not including the tip; left cornea dendrites, keratitis and edema; loss of functional vision, elevated intraocular pressure as high as 42 mm Hg, conjunctival irritation and redness and anesthetic cornea. There were also general body flu symptoms.
The patient was initially treated with ophthalmic prednisolone acetate 1% up to 5 times daily, ophthalmic antibiotics, non-prescription ophthalmic wetting agents, and lubrication with gels administered to the eye. Additional drug therapies included systemic oral valcyclovir as high as 2 g per day and medications to reduce intraocular pressure.
Despite the therapy, symptom flare-up was as frequent as 2 weeks to 1 month over the past 10 years. Although intraocular pressure returned to within the normal range, cataracts formed as a result of long term use of corticosteroids.
The cornea surface contour became increasingly distorted with prominent ridges. There was incursion of capillaries across the conjunctiva into the cornea, both superficially and deep. Deposition of phospholipids through a leaching process occluded the cornea with grey color deposits on about 50% of its surface.
Corneal thinning had progressed to near perforation levels which required preparation for corneal patch surgery.
At this point, 1% topical progesterone (approximately 1 mg of progesterone) was first administered as a method to keep the cornea from perforating and the tear film intact. The drug was applied to the forehead 4 times daily together with topical antibiotics and corticosteroids.
After stabilizing the cornea, antiviral treatment was begun with ganciclovir gel (0.15%; 0.15 mg of drug) applied five times daily to the forehead together with once daily progesterone (1%; 1 mg of drug) and a nightly drop of ophthalmic antibiotic. Intraocular pressure measured at the onset of ganciclovir treatment was 18 mm Hg.
The patient reported a decrease in eye strain as a result of an improvement in tear film. […] Over the next two weeks, inflammation was further reduced and visual acuity increased somewhat when the head was tilted back. During the first full month of treatment, the affected eye generally felt comfortable. There was a lack of inflammation, and some vision returned to the threshold of functionality. Intraocular pressure remained normal in the range of 16 mm Hg.
There was modest improvement in reading the eye chart, and corneal staining due to defects was minimized. Intraocular pressure remained normal in both eyes at about 16 mm Hg during this period. The phospholipid deposits further reduced in density and began to give the appearance of lesser areas of concentrations. Nearly functional vision could be achieved by positioning the head back and viewing through the central cornea. The residual clear area of the cornea became more so and less inflamed. Through the end of the second month, improvement to the cornea accelerated. The pupil was now clearly visible and more light was entering the eye.
The patient was examined regularly by an ophthalmologist, and after three and one half months of treatment. The intraocular pressure was normal at 12 mm Hg. […] Intraocular pressure has remained in the same range for more than one year.

[3] = system: patients with ocular discomfort resulting from dry eye; assay: Treatment of dry eye with topical progesterone applied cranially

Q: How did the “ocular discomfort, redness and need for lubricating drops” value [1] turn out when CC(=O)[C@H]1CC[C@H]2[C@@H]3CCC4=CC(=O)CC[C@]4(C)[C@H]3CC[C@]12C [progesterone] was run?
A: The value was “able to stop using the lubricating drops; also recorded: Redness also disappeared; also recorded: helped to ease irritation, lid sticking and redness”.

Q: And the corneal deterioration ([2]; 1% progesterone (about 1 mg) to forehead 4 times daily together with topical antibiotics and corticosteroids)?
A: The corneal deterioration was “Further corneal deterioration was halted”.

Q: And the “inflammation, visual acuity and state of affected eye” value ([2]; ganciclovir gel 0.15% (0.15 mg) five times daily plus progesterone 1% (1 mg) once daily to forehead, nightly ophthalmic antibiotic, 1 week to 3.5 months)?
A: Its value is “less inflammation and a slight improvement in visual acuity; also recorded: some functional vision was attained; also recorded: stable and normalizing”.

Q: What about the intraocular pressure ([2]; after three and one half months) of the same compound?
A: The intraocular pressure was 12 mm Hg.

Q: And the intraocular pressure ([2]; both eyes, examination period up to third month)?
A: The intraocular pressure was “about 16 mm Hg”.

Q: And the intraocular pressure ([2]; first full month of treatment)?
A: Its intraocular pressure is about 16 mm Hg.

Q: And the Results ([3]; 1% progesterone TID)?
A: Its Results is “Stopped using lubricating drops. Redness,; also recorded: itching and scaly eyelids disappeared”.

Q: What about the TBUT ([3]; subject 18, 1% progesterone 2-3 times/day, increased from 2) of the same compound?
A: The TBUT was “TBUT increased from 2 to 8. Long term”.
